According to publication PMC9958940 (Viruses, 2023):
Starred links: 1 amine or outer side, 2 acyl side, 3 side chain; linkers in the order of their positions; H or OH if unused. Positions of bridges follow the written chain, without caps; N, C: chain ends. Non-standard residues stand in square brackets, D forms with d. Residues, ends and D or L forms follow the SMILES beside them. *: point of attachment. hTyr(3S-OH,4S-OH,3'-OSO3H) = N[C@H](C(=O)O)[C@H](O)[C@@H](O)c1ccc(O)c(OS(=O)(=O)O)c1; Orn(4R-OH,5R-OH) = O=C([C@H](C[C@@H](O)[C@@H](O)N[*:3])N[*:1])[*:2]; Pro(3S-OH,4S-Me) = C[C@H]1CN[C@H](C(=O)O)[C@H]1O; X1 = CCCCCOc1ccc(-c2cc(-c3ccc(C(=O)*)cc3)no2)cc1; Gln(3R-OH) = NC(=O)C[C@@H](O)[C@H](N)C(=O)O; Hyp = O=C(O)[C@@H]1C[C@@H](O)CN1

Assays:
[1] = tested on: SARS-CoV-2 R10/E796G C799F; format: cell-based; settings: read-out: SARS-CoV-2 RNA IC50, R10/E796G C799F
SARS-CoV-2 E406W variant = format: cell-based; settings: read-out: SARS-CoV-2 RNA IC50, E406W

## CCCCCOc1ccc(-c2cc(-c3ccc(C(=O)N[C@H]4C[C@@H](O)[C@@H](O)NC(=O)[C@@H]5[C@@H](O)[C@@H](C)CN5C(=O)[C@H]([C@H](O)CC(N)=O)NC(=O)[C@H]([C@H](O)[C@@H](O)c5ccc(O)c(OS(=O)(=O)O)c5)NC(=O)[C@@H]5C[C@@H](O)CN5C(=O)[C@H]([C@@H](C)O)NC4=O)cc3)no2)cc1 [Micafungin] (X1-[Orn(4R-OH,5R-OH)]T[Hyp][hTyr(3S-OH,4S-OH,3'-OSO3H)][Gln(3R-OH)][Pro(3S-OH,4S-Me)]; lactam 1-C)
[1]
  IC50: 31.3 µM
SARS-CoV-2 E406W variant
  IC50: 21.7 µM
